In US9242006B2, “Composition of chlorin e6 stabilized within albumin for the photodynamic diagnosis and therapy of tumors” (APOCARE PHARMA GMBH, priority 2011, dated 2016):

Key:
[1] = 48 hours after administration; cited from earlier work
[2] = Storage stability of chlorin e6 in aqueous solutions with or without human serum albumin, measured by analytical HPLC; format: physicochemical; conditions: for residual active ingredient content / residual active ingredient content (HPLC area) / residual active ingredient content compared with 5 wt. % HSA / residual content of chlorin e6 (HPLC area) / residual chlorin e6 (HPLC area): 30° C.; for residual active ingredient content / residual active ingredient content (HPLC area): 5 wt. % HSA; for residual active ingredient content: all three pH values (7.0, 7.5, 8.0); for residual active ingredient content compared with 5 wt. % HSA: 10 wt. % HSA, pH 7 and pH 7.5; for residual content of chlorin e6 (HPLC area): 20 wt. % HSA; for residual content of chlorin e6 (mean) / residual active ingredient content (mean) / residual active ingredient content (HPLC area, mean) / residual active ingredient content (bound) / residual chlorin e6 (HPLC area, mean): 5° C.; for residual content of chlorin e6 (mean): pH 8.0, 1.25 wt. % HSA; for residual active ingredient content (mean): pH 8.0, 2.5 wt. % HSA; for residual active ingredient content (HPLC area, mean) / residual active ingredient content (bound): pH 8.0, 5 wt. % HSA; for residual chlorin e6 (HPLC area, mean): pH 8.0, pure buffer
Method: In order to determine the stability of a composition comprising chlorin e6 and an albumin, three buffer solutions with pH values of 7.0, 7.5 and 8.0, each of which contained potassium dihydrogen phosphate (Merck) and disodium hydrogen phosphate (Merck) as buffer salts, were prepared and sterilised.
Starting from a 20 wt. % stock solution of human serum albumin (Biotest AG), dilute solutions comprising 10 wt. %, 5 wt. % and 0 wt. % human serum albumin were then prepared by means of the above buffer solutions. For the buffering of the 20 wt. % stock solution of human serum albumin, the buffer salts were added in the form of solids directly to 20 ml aliquots of the stock solution.
Thereafter, 2 ml of each of the various buffered solutions were introduced into brown glass bottles with crimped caps, and 40 μl of a 75 mM solution of chlorin e6 sodium salt (ORPEGEN Peptide Chemicals GmbH) in water were added thereto. In this manner there were prepared aqueous solutions of chlorin e6 sodium salt having a concentration of 0 wt. %, 1.25 wt. %, 2.5 wt. %, 5 wt. %, 10 wt. % and 20 wt. % human serum albumin which had pH values of 7.0, 7.5 and 8.0. For the purpose of reproducibility of the results, the individual solutions were each made up several times.
The solutions were re-packaged in a light-tight manner and incubated at 30° C. in a drying cabinet or at 5° C. in a refrigerator. […] Maisch GmbH); eluant: 80 mM triethylammonium phosphate buffer pH 2.25/acetonitrile). The extent of the decomposition of chlorin e6 was calculated in each case by comparing the areas under the peak belonging to chlorin e6 in the HPLC diagram before and after storage.

C=Cc1c(C)c2cc3nc(c(CC(=O)O)c4[nH]c(cc5nc(cc1[nH]2)C(C)=C5CC)c(C)c4C(=O)O)[C@@H](CCC(=O)O)[C@@H]3C [chlorin e6]
active substance detectable in the human organism [1]: only traces
residual active ingredient content ([2]; 4 weeks): > 95%
residual active ingredient content (HPLC area) ([2]; 4 weeks, pH 7.0): 95.3 % area
residual active ingredient content (HPLC area) ([2]; 4 weeks, pH 7.5): 97.5 % area
residual active ingredient content (HPLC area) ([2]; 4 weeks, pH 8.0): 98.6 % area
residual active ingredient content compared with 5 wt. % HSA ([2]; 4 weeks): slightly higher
residual content of chlorin e6 (HPLC area) ([2]; 4 weeks, pH 7.0): 94.6 % area
residual content of chlorin e6 (HPLC area) ([2]; 4 weeks, pH 7.5): 96.4 % area
residual content of chlorin e6 (HPLC area) ([2]; 4 weeks, pH 8.0): 96.6 % area
residual chlorin e6 (HPLC area) ([2]; 4 weeks, pure buffer, no HSA, pH 7.0): 1.9 % area
residual chlorin e6 (HPLC area) ([2]; 4 weeks, pure buffer, no HSA, pH 7.5): 2.4 % area
residual chlorin e6 (HPLC area) ([2]; 4 weeks, pure buffer, no HSA, pH 8.0): 3.6 % area
residual content of chlorin e6 (mean) ([2]; 6 months): approximately 83.6%
residual active ingredient content (mean) ([2]; 6 months): approximately 96.6%
residual active ingredient content (HPLC area, mean) ([2]; 6 months): 97.9 % area
residual active ingredient content (bound) ([2]; 6 months): > 97%
residual chlorin e6 (HPLC area, mean) ([2]; 6 months, no HSA): 1.1 % area
residual content of chlorin e6 (mean) ([2]; 9 months): approximately 84.9%
residual active ingredient content (mean) ([2]; 9 months): approximately 93.8%
residual active ingredient content (HPLC area, mean) ([2]; 9 months): 96.4 % area
residual active ingredient content (bound) ([2]; 9 months): > 96%
residual chlorin e6 (HPLC area, mean) ([2]; 9 months, no HSA): 1.74 % area
residual active ingredient content ([2]; 10 weeks): > 94%
residual active ingredient content (HPLC area) ([2]; 10 weeks, pH 7.0): 94.1 % area
residual active ingredient content (HPLC area) ([2]; 10 weeks, pH 7.5): 96.0 % area
residual active ingredient content (HPLC area) ([2]; 10 weeks, pH 8.0): 97.8 % area
residual active ingredient content compared with 5 wt. % HSA ([2]; 10 weeks): slightly higher
residual content of chlorin e6 (HPLC area) ([2]; 10 weeks, pH 7.0): 91.9 % area
residual content of chlorin e6 (HPLC area) ([2]; 10 weeks, pH 7.5): 94.0 % area
residual content of chlorin e6 (HPLC area) ([2]; 10 weeks, pH 8.0): 95.9 % area
residual chlorin e6 (HPLC area) ([2]; 10 weeks, pure buffer, no HSA, pH 7.0): 0 % area
residual chlorin e6 (HPLC area) ([2]; 10 weeks, pure buffer, no HSA, pH 7.5): 0.52 % area
residual chlorin e6 (HPLC area) ([2]; 10 weeks, pure buffer, no HSA, pH 8.0): 0.89 % area
residual content of chlorin e6 (mean) ([2]; 12 months): approximately 69.5%
residual active ingredient content (mean) ([2]; 12 months): approximately 93.6%
residual active ingredient content (HPLC area, mean) ([2]; 12 months): 96.7 % area
residual active ingredient content (bound) ([2]; 12 months): > 96%
residual chlorin e6 (HPLC area, mean) ([2]; 12 months, no HSA): 0.26 % area
residual chlorin e6 (HPLC area) ([2]; 4 days, addition of Na caprylate or N-acetyl-DL-tryptophan, no human serum albumin): 68.8 % area
residual chlorin e6 (HPLC area) ([2]; 4 days, buffer solution pH 8, 5 wt. % human serum albumin): 97.8 % area
residual chlorin e6 (HPLC area) ([2]; 4 days, non-buffered solution adjusted to pH 7, 5% human serum albumin): 97.0 % area
residual chlorin e6 (HPLC area) ([2]; 4 days, pure buffer solution pH 8, no human serum albumin): 59.1 % area
storage life of aqueous solution of chlorin e6 with human serum albumin ([2]; storage at 2 to 8° C., extrapolated from data of FIGS. 1 to 6): at least 12 months
